Assay results taken from patent publication US20070264674A1, “Cytochrome P450 Induction Assay” (priority 2004, published 2007).

What was measured:
hCAR [1] = molecular target: T1, hCAR (Homo sapiens, UniProt Q14994); assay: Primary rat hepatocytes cotransfected with clone 102-SEAP and hCAR; type: cell-based; parameters: expressed in transfected cells; host or cells: primary rat hepatocytes (transient co-transfection, Effectene); conditions: 10 μM Rifampicin, 1 μM CITCO, 1 mM Phenobarbital, 48 h
T1 sequence (Q14994 1-348 isoform Q14994-2): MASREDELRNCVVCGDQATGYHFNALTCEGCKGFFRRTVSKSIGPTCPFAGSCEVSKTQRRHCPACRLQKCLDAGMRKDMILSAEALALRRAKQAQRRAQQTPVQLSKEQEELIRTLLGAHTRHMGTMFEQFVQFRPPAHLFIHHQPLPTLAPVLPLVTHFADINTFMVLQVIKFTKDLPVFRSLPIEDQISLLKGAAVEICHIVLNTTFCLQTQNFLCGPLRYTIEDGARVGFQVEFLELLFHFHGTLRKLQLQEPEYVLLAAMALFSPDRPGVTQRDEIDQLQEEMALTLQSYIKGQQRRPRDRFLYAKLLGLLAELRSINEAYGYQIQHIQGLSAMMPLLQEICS
Description: (§1) After four hours, cell culture medium was changed with 1 mL Williams E medium containing Pen/Strep, glutamine and ITS+Premix and the cells were incubated overnight under normal growth condition.
(§2) This was followed by adding 3.2 μL Enhancer and mixing by vortexing for 1 second. […] The cotransfections were followed by adding 3.2 μL Enhancer and mixing by vortexing for 1 second. The transfections/cotransfections were incubated at room temperature for 5 minutes. Then, the mixtures were centrifuged for a few seconds to remove drops from the top of the tube. Next, to each of the mixtures, five μL of Effectene Transfection Reagent was added and the mixtures mixed by vortexing for 10 seconds. The mixtures were then incubated for ten minutes at room temperature to allow transfection complex formation.
(§3) Meanwhile, the growth medium for each of the wells of the 24-well plate containing the cells was removed from the wells and the cells in the wells washed once with 1 mL of growth medium. Then, 350 μL of fresh growth medium was added to each of the wells and 350 μL of growth medium was added to each of the tubes of transfection complexes, which were then mixed and immediately added drop-wise onto the cells in the well. The plates were gently swirled to ensure uniform distribution of the transfection complexes over the cells. […]

hCAR [2] = molecular target: T1, hCAR; assay: SEAP reporter assay in HepG2 cells co-transfected with human CAR; type: cell-based; parameters: A 1047 bp nucleic acid encoding the human CAR (hCAR) obtained from the RT-PCR; expressed in transfected cells; host or cells: HepG2 (transient co-transfection with the reporter plasmid); conditions: HepG2 + human CAR (constitutive activation); 48 h; 200 μM Omeprazole, 6 μM Clotrimazole, 125 nM Hyperforin, 12.5 μM Lovastatin, 100 μM N-propyl-p-hydroxy-benzoate
Description: The NR donor plasmid encoding the human CAR was made as follows. The human CAR was made by RT-PCR from a human liver mRNA preparation. […] The RT-PCR conditions were 15 seconds at 94° C., 30 cycles of 94° C. for 30 seconds followed by 68° C. for 3 minutes, then 68° C. for 3 minutes, and storage at 4° C.
Controls omitted the DNA encoding the human CAR. Additional controls consisted of DNA encoding the human PXR of the previous example.
After incubating the cells 48 hours at 37° C., the medium form wells were collected for SEAP assays. The assays for SEAP expression were performed with Tropix Phospha-Light system kit.

hPXR = molecular target: T2, hPXR (Homo sapiens, UniProt O75469); assay: Primary rat hepatocytes cotransfected with clone 102-SEAP and hPXR; conditions: 10 μM Rifampicin, 1 μM CITCO, 1 mM Phenobarbital, 48 h
T2 sequence (O75469 1-434): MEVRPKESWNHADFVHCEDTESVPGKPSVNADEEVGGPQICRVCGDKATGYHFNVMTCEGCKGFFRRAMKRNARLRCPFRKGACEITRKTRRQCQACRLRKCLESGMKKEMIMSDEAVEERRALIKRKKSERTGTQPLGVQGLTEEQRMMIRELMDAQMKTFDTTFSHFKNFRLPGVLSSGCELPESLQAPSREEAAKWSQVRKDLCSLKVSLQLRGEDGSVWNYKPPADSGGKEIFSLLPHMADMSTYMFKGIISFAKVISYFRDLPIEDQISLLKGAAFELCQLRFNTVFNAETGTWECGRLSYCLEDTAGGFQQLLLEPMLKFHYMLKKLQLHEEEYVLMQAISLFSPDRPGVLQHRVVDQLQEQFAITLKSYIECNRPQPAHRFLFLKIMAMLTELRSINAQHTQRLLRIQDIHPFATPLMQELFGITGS
Description: as §1, §2, §3

[3] = test system: endogenous rat CAR or PXR; assay: Primary rat hepatocytes transfected with clone 102-SEAP and pUC19 (control, no nuclear receptor); conditions: clone 102-SEAP + pUC19, 10 μM Rifampicin, 1 μM CITCO, 1 mM Phenobarbital, 48 h
Description: as §1, §2, §3

SMILES | effect on transcription from clone 102-SEAP composite promoter (hCAR [2]) | effect on transcription from ΔCYP3A4 promoter (hCAR [2]) | also measured
Clc1ccc(-c2nc3sccn3c2C=NOCc2ccc(Cl)c(Cl)c2)cc1 [CITCO, 6-(4-Chlorophenyl)imidazo[2,1-b][1,3]thiazole-5-carbaldehyde O-(3,4-dichlorobenzyl)oxime] | – | – | induction of clone 102-SEAP expression via hCAR (hCAR [1]): about 4.2 fold
Clc1ccccc1C(c1ccccc1)(c1ccccc1)n1ccnc1 [Clotrimazole] | inhibitory effect | inhibitory effect | –
CC[C@H](C)C(=O)O[C@H]1C[C@@H](C)C=C2C=C[C@H](C)[C@H](CC[C@@H]3C[C@@H](O)CC(=O)O3)[C@H]21 [Lovastatin] | not affected | – | –
CCCOC(=O)c1ccc(O)cc1 [N-propyl-p-hydroxy-benzoate] | not affected | moderate inhibition | –
CCC1(c2ccccc2)C(=O)NC(=O)NC1=O [Phenobarbital] | – | – | induction of clone 102-SEAP expression via hPXR (hPXR): about 3.4 fold; induction of clone 102-SEAP without co-transfected nuclear receptor [3]: no response
